# Experimental data: ChEMBL document CHEMBL1150356, “Design, synthesis and biological evaluation of substituted pyrrolo[2,3-d]pyrimidines as multiple receptor tyrosine kinase inhibitors and antiangiogenic agents” (Bioorg Med Chem, 2008)
# Columns and labels:
# Gallus gallus = species: Gallus gallus; experiment: Antiangiogenic activity against fertile leghorn chicken eggs by CAM assay; format: functional, organism-based
# [1] = target: Epidermal growth factor receptor (Homo sapiens, UniProt P00533); experiment: Inhibition of EGFR expressed in human tumor cells
# [2] = target: Vascular endothelial growth factor receptor 1 (Homo sapiens, UniProt P17948); experiment: Inhibition of VEGFR1 expressed in human tumor cells
# [3] = target: Platelet-derived growth factor receptor beta (Homo sapiens, UniProt P09619); experiment: Inhibition of PDGFRbeta expressed in human tumor cells
# [4] = target: Vascular endothelial growth factor receptor 2 (Homo sapiens, UniProt P35968)
# Description: Inhibition of VEGFR2 expressed in human tumor cells
# A-431 = experiment: cells; conditions: Homo sapiens
# Description: Cytotoxicity against human A431 cells
# Epidermal growth factor receptor, sequence (P00533 whole entry): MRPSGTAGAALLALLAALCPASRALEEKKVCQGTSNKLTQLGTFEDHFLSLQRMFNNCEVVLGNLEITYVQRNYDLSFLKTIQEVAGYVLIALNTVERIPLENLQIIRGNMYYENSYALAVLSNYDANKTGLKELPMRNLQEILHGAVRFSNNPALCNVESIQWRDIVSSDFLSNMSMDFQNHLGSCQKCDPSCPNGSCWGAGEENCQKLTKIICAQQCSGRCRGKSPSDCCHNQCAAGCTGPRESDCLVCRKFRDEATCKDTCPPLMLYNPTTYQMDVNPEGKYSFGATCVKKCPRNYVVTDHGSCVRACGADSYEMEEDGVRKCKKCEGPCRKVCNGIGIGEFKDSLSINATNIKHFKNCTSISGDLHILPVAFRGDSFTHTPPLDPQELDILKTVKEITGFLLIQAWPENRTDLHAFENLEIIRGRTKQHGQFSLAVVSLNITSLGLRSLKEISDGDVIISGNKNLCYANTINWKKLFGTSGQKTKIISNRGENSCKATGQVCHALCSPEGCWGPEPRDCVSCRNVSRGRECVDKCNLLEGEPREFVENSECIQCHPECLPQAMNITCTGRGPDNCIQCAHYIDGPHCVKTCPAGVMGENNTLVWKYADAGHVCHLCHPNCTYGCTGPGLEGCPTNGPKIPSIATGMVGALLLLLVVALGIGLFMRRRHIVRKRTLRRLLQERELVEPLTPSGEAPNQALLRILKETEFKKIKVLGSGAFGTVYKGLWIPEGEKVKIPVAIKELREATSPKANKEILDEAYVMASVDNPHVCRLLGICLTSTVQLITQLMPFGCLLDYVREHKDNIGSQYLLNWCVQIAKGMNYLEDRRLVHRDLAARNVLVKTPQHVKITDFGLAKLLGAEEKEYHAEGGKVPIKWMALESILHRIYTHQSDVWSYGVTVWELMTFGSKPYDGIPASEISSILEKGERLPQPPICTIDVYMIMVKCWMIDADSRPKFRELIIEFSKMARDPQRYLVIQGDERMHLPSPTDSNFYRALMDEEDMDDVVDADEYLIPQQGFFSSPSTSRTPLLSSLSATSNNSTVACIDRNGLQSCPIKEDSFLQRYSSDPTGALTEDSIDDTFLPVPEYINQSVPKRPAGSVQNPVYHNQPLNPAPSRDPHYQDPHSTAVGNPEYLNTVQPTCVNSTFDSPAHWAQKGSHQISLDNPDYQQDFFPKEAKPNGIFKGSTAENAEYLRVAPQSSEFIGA
# Platelet-derived growth factor receptor beta, sequence (P09619 whole entry): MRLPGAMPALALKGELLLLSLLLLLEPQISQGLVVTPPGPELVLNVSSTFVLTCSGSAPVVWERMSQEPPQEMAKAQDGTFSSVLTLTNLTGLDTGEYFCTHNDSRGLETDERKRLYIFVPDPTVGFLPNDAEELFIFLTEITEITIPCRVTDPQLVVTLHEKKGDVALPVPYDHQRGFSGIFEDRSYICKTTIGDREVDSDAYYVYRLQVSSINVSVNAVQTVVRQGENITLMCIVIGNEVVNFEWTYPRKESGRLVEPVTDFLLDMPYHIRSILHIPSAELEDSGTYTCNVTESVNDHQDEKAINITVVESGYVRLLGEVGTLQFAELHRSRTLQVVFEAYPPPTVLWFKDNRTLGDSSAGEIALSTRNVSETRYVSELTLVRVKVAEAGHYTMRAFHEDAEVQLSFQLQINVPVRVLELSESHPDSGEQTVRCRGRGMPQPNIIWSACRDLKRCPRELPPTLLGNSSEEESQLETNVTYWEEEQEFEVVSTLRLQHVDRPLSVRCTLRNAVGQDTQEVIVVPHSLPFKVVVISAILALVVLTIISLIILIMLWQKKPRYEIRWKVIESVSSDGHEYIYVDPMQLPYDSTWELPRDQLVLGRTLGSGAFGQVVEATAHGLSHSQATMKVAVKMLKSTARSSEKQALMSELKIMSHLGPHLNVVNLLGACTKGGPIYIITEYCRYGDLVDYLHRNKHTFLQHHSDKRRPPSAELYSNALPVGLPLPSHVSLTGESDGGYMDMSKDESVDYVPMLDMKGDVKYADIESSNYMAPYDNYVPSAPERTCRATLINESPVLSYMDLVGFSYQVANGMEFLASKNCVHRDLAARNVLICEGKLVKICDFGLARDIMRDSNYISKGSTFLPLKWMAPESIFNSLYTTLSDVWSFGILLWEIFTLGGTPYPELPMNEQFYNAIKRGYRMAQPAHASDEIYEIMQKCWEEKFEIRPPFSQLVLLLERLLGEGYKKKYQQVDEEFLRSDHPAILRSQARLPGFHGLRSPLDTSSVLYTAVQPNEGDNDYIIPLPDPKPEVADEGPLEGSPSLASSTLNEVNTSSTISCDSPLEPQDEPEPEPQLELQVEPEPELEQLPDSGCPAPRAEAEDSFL
# Vascular endothelial growth factor receptor 1, sequence (P17948 whole entry): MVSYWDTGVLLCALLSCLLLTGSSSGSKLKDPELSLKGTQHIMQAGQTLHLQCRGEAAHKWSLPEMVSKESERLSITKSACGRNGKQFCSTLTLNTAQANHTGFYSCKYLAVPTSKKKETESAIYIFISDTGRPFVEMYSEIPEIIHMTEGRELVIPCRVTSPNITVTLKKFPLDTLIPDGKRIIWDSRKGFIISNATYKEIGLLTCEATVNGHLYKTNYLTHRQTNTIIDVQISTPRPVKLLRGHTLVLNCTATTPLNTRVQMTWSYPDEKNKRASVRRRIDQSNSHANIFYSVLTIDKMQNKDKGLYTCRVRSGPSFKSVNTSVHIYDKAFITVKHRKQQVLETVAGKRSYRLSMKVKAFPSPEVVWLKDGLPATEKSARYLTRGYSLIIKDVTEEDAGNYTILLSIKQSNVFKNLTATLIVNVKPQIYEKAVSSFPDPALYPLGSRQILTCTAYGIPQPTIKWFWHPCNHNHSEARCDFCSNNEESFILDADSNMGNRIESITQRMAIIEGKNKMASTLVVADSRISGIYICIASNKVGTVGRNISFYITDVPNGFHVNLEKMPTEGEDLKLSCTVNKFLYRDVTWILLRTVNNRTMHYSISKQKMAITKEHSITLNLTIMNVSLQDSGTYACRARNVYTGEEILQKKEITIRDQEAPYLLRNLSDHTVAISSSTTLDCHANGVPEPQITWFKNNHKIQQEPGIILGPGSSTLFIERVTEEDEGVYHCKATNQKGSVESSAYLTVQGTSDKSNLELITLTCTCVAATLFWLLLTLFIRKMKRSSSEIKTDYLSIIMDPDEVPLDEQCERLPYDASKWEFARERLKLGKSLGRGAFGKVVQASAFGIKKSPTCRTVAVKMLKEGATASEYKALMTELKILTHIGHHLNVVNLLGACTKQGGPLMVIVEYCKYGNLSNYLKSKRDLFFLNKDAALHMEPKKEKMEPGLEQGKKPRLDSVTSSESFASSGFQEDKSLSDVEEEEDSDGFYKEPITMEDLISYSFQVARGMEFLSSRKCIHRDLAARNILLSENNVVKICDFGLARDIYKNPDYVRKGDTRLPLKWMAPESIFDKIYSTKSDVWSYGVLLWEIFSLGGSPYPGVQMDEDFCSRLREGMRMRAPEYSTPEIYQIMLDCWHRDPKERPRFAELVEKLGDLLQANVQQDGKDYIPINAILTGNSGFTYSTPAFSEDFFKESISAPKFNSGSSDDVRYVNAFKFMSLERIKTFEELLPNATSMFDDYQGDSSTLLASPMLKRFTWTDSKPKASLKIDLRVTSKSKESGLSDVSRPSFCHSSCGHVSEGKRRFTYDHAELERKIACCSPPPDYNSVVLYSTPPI
# Vascular endothelial growth factor receptor 2, sequence (P35968 whole entry): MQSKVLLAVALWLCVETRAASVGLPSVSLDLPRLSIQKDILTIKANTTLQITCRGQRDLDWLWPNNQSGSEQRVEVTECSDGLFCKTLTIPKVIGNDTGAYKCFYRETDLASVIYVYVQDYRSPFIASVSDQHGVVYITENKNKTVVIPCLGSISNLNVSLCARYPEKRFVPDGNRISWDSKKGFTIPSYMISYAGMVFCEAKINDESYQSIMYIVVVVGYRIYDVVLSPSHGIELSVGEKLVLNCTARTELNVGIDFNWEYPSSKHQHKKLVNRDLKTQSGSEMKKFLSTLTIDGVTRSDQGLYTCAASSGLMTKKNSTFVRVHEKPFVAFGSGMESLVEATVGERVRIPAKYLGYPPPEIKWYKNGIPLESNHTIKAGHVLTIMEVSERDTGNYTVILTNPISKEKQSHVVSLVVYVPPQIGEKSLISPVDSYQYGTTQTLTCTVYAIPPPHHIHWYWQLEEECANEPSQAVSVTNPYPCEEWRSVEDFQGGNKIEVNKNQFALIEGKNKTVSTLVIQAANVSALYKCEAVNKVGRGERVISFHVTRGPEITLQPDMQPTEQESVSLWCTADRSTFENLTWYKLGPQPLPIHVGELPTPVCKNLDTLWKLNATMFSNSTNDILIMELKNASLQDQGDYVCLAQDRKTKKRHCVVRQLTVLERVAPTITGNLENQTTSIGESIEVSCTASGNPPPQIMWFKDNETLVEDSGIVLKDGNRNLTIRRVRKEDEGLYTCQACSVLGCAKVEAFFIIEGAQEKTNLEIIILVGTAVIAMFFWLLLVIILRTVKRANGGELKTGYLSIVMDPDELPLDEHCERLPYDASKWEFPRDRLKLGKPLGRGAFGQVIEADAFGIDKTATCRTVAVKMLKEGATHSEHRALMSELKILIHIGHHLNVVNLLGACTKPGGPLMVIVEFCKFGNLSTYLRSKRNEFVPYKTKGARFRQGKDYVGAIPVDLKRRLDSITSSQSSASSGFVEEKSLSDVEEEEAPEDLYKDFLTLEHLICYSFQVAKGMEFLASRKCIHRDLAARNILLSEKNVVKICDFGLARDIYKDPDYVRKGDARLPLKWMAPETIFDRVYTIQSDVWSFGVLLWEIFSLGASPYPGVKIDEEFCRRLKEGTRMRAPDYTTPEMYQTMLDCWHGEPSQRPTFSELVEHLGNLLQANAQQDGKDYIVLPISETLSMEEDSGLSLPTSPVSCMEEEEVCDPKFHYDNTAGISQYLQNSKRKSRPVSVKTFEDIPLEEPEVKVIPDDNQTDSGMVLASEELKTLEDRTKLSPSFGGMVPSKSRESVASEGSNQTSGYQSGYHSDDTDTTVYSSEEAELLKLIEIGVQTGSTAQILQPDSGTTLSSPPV
Structure (SMILES),IC50 (Gallus gallus),IC50 [1],IC50 [2],IC50 [3],IC50 [4],IC50 (A-431)
Nc1nc(Nc2cccc(Br)c2)c2cc(Cc3cccc4ccccc34)[nH]c2n1,0.053 µM,,,,,
Nc1nc(Nc2ccc(F)c(C(F)(F)F)c2)c2cc(CCc3ccccc3)[nH]c2n1,,122 µM,> 200 µM,90 µM,> 200 µM,
Nc1nc(Nc2ccc(F)c(Br)c2)c2cc(CCc3ccccc3)[nH]c2n1,,> 200 µM,> 200 µM,> 500 µM,198 µM,3.4 µM
Nc1nc(Nc2cccc(C(F)(F)F)c2)c2cc(CCc3ccccc3)[nH]c2n1,,> 200 µM,> 200 µM,> 500 µM,> 200 µM,
Nc1nc(Nc2cccc(Br)c2)c2cc(CCc3ccccc3)[nH]c2n1,19.5 µM,0.3 µM,45.1 µM,11.8 µM,> 50 µM,
Nc1nc(Nc2ccc3[nH]ccc3c2)c2cc(CCc3ccccc3)[nH]c2n1,,> 200 µM,> 200 µM,77.4 µM,24.9 µM,
Nc1nc(Nc2cccc(Br)c2)c2cc(Cc3ccccc3)[nH]c2n1,,,,> 50 µM,,
Nc1nc(Nc2cccc(Br)c2)c2cc(Cc3ccccc3Cl)[nH]c2n1,1.7 µM,,,> 50 µM,,
Nc1nc(Nc2cccc(Br)c2)c2cc(Cc3ccc4ccccc4c3)[nH]c2n1,,,,> 50 µM,,
C#Cc1cccc(Nc2nc(N)nc3[nH]c(CCc4ccccc4)cc23)c1,,> 200 µM,> 200 µM,100 µM,> 200 µM,

# More lines, in order of falling IC50 [1], values ahead:
IC50 (Gallus gallus),IC50 [1],IC50 [2],IC50 [3],IC50 [4],IC50 (A-431),Structure (SMILES)
5.9 µM,22.8 µM,> 200 µM,> 500 µM,132 µM,6.8 µM,Nc1nc(Nc2ccc(F)c(Cl)c2)c2cc(CCc3ccccc3)[nH]c2n1
15.2 µM,4.8 µM,11.2 µM,11 µM,,8.2 µM,Nc1nc(Nc2cccc(Br)c2)c2cc(CCc3cccc4ccccc34)[nH]c2n1
18.9 µM,4.7 µM,7.8 µM,13.7 µM,16.8 µM,> 50 µM,Nc1nc(Nc2cccc(Br)c2)c2cc(CCc3ccc4ccccc4c3)[nH]c2n1
10.1 µM,3.4 µM,32.7 µM,> 50 µM,42.3 µM,13.2 µM,Nc1nc(Nc2cccc(Br)c2)c2cc(CCc3ccccc3Cl)[nH]c2n1
3.3 µM,3.18 µM,> 200 µM,> 500 µM,> 200 µM,1.6 µM,Nc1nc(Nc2ccc(Cl)cc2)c2cc(CCc3ccccc3)[nH]c2n1
21.1 µM,2.2 µM,31.8 µM,> 50 µM,> 50 µM,> 50 µM,COc1ccc(CCc2cc3c(Nc4cccc(Br)c4)nc(N)nc3[nH]2)cc1
,1.32 µM,> 200 µM,> 500 µM,> 200 µM,,Nc1nc(Nc2ccc(Cl)cc2F)c2cc(CCc3ccccc3)[nH]c2n1
